≈ marks a conversion by molar mass, not a printed value. Like-named read-outs stand apart in the source and are kept apart here.
Tests used:
[1] = system: HSV-1 or HSV-2; test: Topical treatment of athymic nude mice inoculated with HSV-1 or HSV-2; assay type: in vivo; conditions: topical gel twice daily for 5 days, p<0.05
Experimental: Figure 8 Effects of adefovir and PMEO-DAPym on mortality in mice inoculated with HSV-1 or HSV-2. Groups of five nu/nu mice were inoculated with HSV-1 (panel A) or HSV-2 (panel B) on the lumbosacral area. Each cohort was then subjected to topical treatment twice daily for 5 consecutive days, starting on the day of viral infection. The placebo groups received a similar treatment with the test formulation without drug. Mortality was recorded over a period of 30 days. Animals were euthanized when more than 30% loss in body weight or development of paralysis occurred. We estimated survival rates according to the Kaplan-Meier method and compared them using the log-rank test (Mantel-Cox using GraphPad Prism).
Female adult NMRI athymic nude mice or hairless mice (weighing ∼20 g and approximately 4 weeks old) were scarified on the lumbosacral area over a surface of about 1 cm^2 with 5×10^3 PFU of HSV-1 (KOS) or 5×10^2 PFU of HSV-2 (G).
Formulations of adefovir and PMEO-DAPym (0.3% and 1%) in a gel (identical to that used in the CAPRISA 004 trial) were applied topically twice a day for a period of 5 days starting 1–2 h post infection. In each experiment, a group of animals was treated with a placebo formulation that contained exactly the same vehicle but without drug. […] Development of lesions and mortality were recorded over a 1-month period. […]

[2] = system: HSV-2 (G and clinical isolates); test: microbe, parasite or virus in culture; assay type: cell-based; conditions: Human alphaherpesvirus 2, HEL
Experimental: (§1) Figure 2 Antiherpetic activity of test compounds in cell culture. Confluent HEL cell cultures were exposed to 100 TCID50 of clinical virus isolates [wild-type HSV-1 (panel A), wild-type HSV-2 (panel B), TK^− HSV-1 (panel C) and TK^− HSV-2 (panel D)] in the presence of drugs at different concentrations and incubated for 3 days at 37°C. […] Data shown are the means of at least two independent experiments.

[3] = system: HSV-1 (KOS and clinical isolates); test: microbe, parasite or virus in culture; assay type: cell-based; conditions: Human alphaherpesvirus 1, HEL
Experimental: as §1

[4] = system: HSV-1 (KOS strain); test: Pre-treatment of PHK cell cultures, HSV-1 infection (CPE)
Experimental: The HSV-induced cytopathic effect (CPE) was evaluated in HSV-infected HEL and PHK cultures as described [44], [48].

[5] = system: HSV-2 (G); test: HSV-2 replication in human cervico-vaginal explants; assay type: cell-based; conditions: 1 µg/ml
Experimental: Figure 6 Suppression of HSV-2 in human cervico-vaginal tissues by adefovir and PMEO-DAPym. Blocks of human cervico-vaginal tissues were inoculated ex vivo with HSV-2 (G) or co-infected with HIV-1 and HSV-2 and treated or not with adefovir (1 µg/ml) or PMEO-DAPym (1 µg/ml). We monitored HSV-2 (G) replication by measuring viral DNA accumulated in culture media at different times throughout the culture period. Presented is cumulative HSV-2 (G) replication, with data representing pooled viral release from 16 tissue blocks.
For cervico-vaginal tissue, 16 blocks were infected by immersion in HSV-2G-containing medium and maintained on the gelfoam rafts. Adefovir was added at the time of infection and replenished at each culture medium change. HSV replication was evaluated from the release of viral DNA into the culture medium as measured with quantitative real-time PCR [18]. We evaluated HIV-1 replication from the release of p24 capsid antigen using a bead-based assay.

[6] = system: HSV-2 (G); test: HSV-2 infection of primary monocyte/macrophage (M/M) cultures; assay type: cell-based; conditions: for inhibition at 0.0032 µg/mL / inhibition at 0.016 µg/mL / inhibition at 0.08 µg/mL / inhibition at 0.4 µg/mL / inhibition at 2 µg/mL / inhibition at 10 µg/mL / inhibition at 50 µg/mL: Human alphaherpesvirus 2, 144 h, day 6, read-out: Inhibition of viral replication (% to control); for EC50: Human alphaherpesvirus 2; for inhibition of HSV-2 replication: 2- to 10-µg/ml
Experimental: We obtained human PBMC from the blood of healthy seronegative donors using Ficoll–Hypaque density gradient centrifugation. The PBMC were resuspended in RPMI 1640 medium supplemented with 20% heat-inactivated serum and then seeded into 48-well plates (1.8×10^6 cells/well). M/M were separated by adherence onto plastic. After 5 days, non-adherent cells were carefully removed by repeated gentle washings with warm medium, and adherent M/M were cultured for an additional 3 days to mature and to form a monolayer. M/M were estimated to be 10^5 cells/well at the time of infection. […]. Similarly, macrophage cultures were treated with the same concentrations of adefovir and tenofovir. Macrophage cultures were then infected with HSV-2 (G) (100 TCID50) in the presence of the compounds. After 2 h of adsorption, the cultures were extensively washed to remove any residual virus particles. Fresh complete medium and compounds, at the established concentrations, were then added to the cultures. Appropriate positive (infected but not treated) and mock-infected negative (uninfected and untreated) M/M controls were run for each experiment as well. All assays were performed in triplicate. […] We determined the amount of infectious virus in the supernatants 5–6 days after infection using the cytopathic effect assay. Tenfold serially diluted supernatants were added to confluent monolayers of Vero cells in 96-well plates (100 µl/well, 6 parallel wells). […] The titers of virus produced were calculated according to the Reed and Muench method and expressed as 50% tissue culture infective dose per mL (TCID50/mL).

[7] = HSV-2, average of seven TK-deficient clinical isolates
[8] = HSV-2, average of seven clinical isolates
[9] = HSV-1, average of six TK-deficient clinical isolates
[10] = HSV-1, average of six clinical isolates
[11] = Human alphaherpesvirus 1, read-out: 50% effective concentration, PHK, HSV-1 KOS, +2 h to 72 h (control, drug present whole incubation)
[12] = Human alphaherpesvirus 1, read-out: 50% effective concentration, PHK, HSV-1 KOS, pretreatment −2.5 h to 0 h
[13] = Human alphaherpesvirus 1, read-out: 50% effective concentration, PHK, HSV-1 KOS, pretreatment −6 h to 0 h
[14] = Human alphaherpesvirus 1, read-out: 50% effective concentration, PHK, HSV-1 KOS, pretreatment −18 h to 0 h
[15] = HSV-2 (G), human monocyte/macrophages

Structure (SMILES) | EC50 ([2]; HSV-2 (G)) [µg/mL] | EC50 [2, 7] [µg/mL] | EC50 [2, 8] [µg/mL] | EC50 ([3]; HSV-1 (KOS)) [µg/mL] | EC50 [3, 9] [µg/mL] | EC50 [3, 10] [µg/mL] | Virus production by HSV2-infected macrophages 6 days after infection (CPE reduction) ([6]; 0.0032 µg/ml) | Cytopathicity (CPE) on macrophages 6 days after infection % CPE ([6]; 0.016 µg/ml) [%] | Virus production by HSV2-infected macrophages 6 days after infection (CPE reduction) ([6]; 0.016 µg/ml) | Cytopathicity (CPE) on macrophages 6 days after infection % CPE ([6]; 0.08 µg/ml) [%] | Virus production by HSV2-infected macrophages 6 days after infection (CPE reduction) ([6]; 0.08 µg/ml) | Virus production by HSV2-infected macrophages 6 days after infection (CPE reduction) ([6]; 0.4 µg/ml) | Virus production by HSV2-infected macrophages 6 days after infection (CPE reduction) ([6]; 10 µg/ml) | Virus production by HSV2-infected macrophages 6 days after infection (CPE reduction) ([6]; 50 µg/ml) | inhibition at 0.0032 µg/mL ([6]; 0.0032 µg/ml, M/M) [%] | inhibition at 0.016 µg/mL ([6]; 0.016 µg/ml, M/M) [%] | inhibition at 0.08 µg/mL ([6]; 0.08 µg/ml, M/M) [%] | inhibition at 0.4 µg/mL ([6]; 0.4 µg/ml, M/M) [%] | inhibition at 2 µg/mL ([6]; 2 µg/ml, M/M) [%] | inhibition at 10 µg/mL ([6]; 10 µg/ml, M/M) [%] | other results
Nc1ncnc2c1ncn2CCOCP(=O)(O)O [Adefovir, 9-(2-phosphonylmethoxyethyl)adenine] | 6.3 ± 2.6 (≈ 23.1 µM) | 7.5 ± 1.5 (≈ 27.5 µM) | 5.9 ± 0.9 (≈ 21.6 µM) | 4.7 ± 1.8 (≈ 17.2 µM) | 7 ± 1.4 (≈ 25.6 µM) | 6.2 ± 1 (≈ 22.7 µM) | 1.6×10^4 TCID50/ml | 60 | 7.2×10^3 TCID50/ml | 40 | 1.8×10^3 TCID50/ml | 8×10^2 TCID50/ml | No virus | No virus | < 0 | 49 | 87 | 94 | 100 | 100 | virus-related morbidity and survival [1]: significantly delayed virus-related morbidity and prolonged the survival of the mice; EC50 [4, 11]: 5.1 ± 1.7 µg/mL (≈ 18.7 µM); EC50 [4, 12]: 30 µg/mL (≈ 110 µM); EC50 [4, 13]: 23.3 µg/mL (≈ 85.3 µM); EC50 [4, 14]: 8.2 ± 1.6 µg/mL (≈ 30 µM); inhibition of HSV-2 infection [5]: markedly inhibited; Virus production by HSV2-infected macrophages 6 days after infection (CPE reduction) ([6]; 2 µg/ml): No virus; inhibition at 50 µg/mL ([6]; 50 µg/ml, M/M): 100%; EC50 [6, 15]: 0.016 ± 0.004 µg/mL (≈ 0.0586 µM); EC50 ([6]; M/M, range over the compounds): 0.02 to 0.2 µg/mL (≈ 0.0732 to 0.732 µM); inhibition of HSV-2 replication ([6]; M/M): virtually completely inhibited
Nc1cc(OCCOCP(=O)(O)O)nc(N)n1 [PMEO-DAPym, 6-phosphonylmethoxyethoxy-2,4-diaminopyrimidine] | 4.4 ± 2.4 (≈ 16.7 µM) | 2.4 ± 0.4 (≈ 9.08 µM) | 2 ± 0.4 (≈ 7.57 µM) | 2.6 ± 1.2 (≈ 9.84 µM) | 2.4 ± 0.6 (≈ 9.08 µM) | 2 ± 0.5 (≈ 7.57 µM) | 1.5×10^4 TCID50/ml | 80 | 1.35×10^4 TCID50/ml | 55 | 7.5×10^3 TCID50/ml | 9.5×10^2 TCID50/ml | No virus | No virus | < 0 | 3.5 | 46 | 93 | 98 to 100 | 100 | virus-related morbidity and survival [1]: significantly delayed virus-related morbidity and prolonged the survival of the mice; EC50 [4, 11]: 2.6 ± 0.8 µg/mL (≈ 9.84 µM); EC50 [4, 12]: 31.6 µg/mL (≈ 120 µM); EC50 [4, 13]: 29.6 µg/mL (≈ 112 µM); EC50 [4, 14]: 7 ± 0.6 µg/mL (≈ 26.5 µM); inhibition of HSV-2 infection [5]: markedly inhibited; Virus production by HSV2-infected macrophages 6 days after infection (CPE reduction) ([6]; 2 µg/ml): 2.26×10^2 TCID50/ml; Cytopathicity (CPE) on macrophages 6 days after infection % CPE ([6]; 10 µg/ml): 0–5%; inhibition at 50 µg/mL ([6]; 50 µg/ml, M/M): 100%; EC50 [6, 15]: 0.09 ± 0.03 µg/mL (≈ 0.341 µM); inhibition of HSV-2 replication ([6]; M/M): virtually completely inhibited
C[C@H](Cn1cnc2c(N)ncnc21)OCP(=O)(O)O [Tenofovir, 9-(2-phosphonylmethoxypropyl)adenine] | 122 ± 51 (≈ 425 µM) | 121 ± 15 (≈ 421 µM) | 139 ± 11 (≈ 484 µM) | 105 ± 20 (≈ 366 µM) | 151 ± 19 (≈ 526 µM) | 125 ± 12 (≈ 435 µM) | 1.2×10^4 TCID50/ml | 75 | 1.3×10^4 TCID50/ml | 60 | 9×10^3 TCID50/ml | 1.9×10^3 TCID50/ml | No virus | No virus | 14 | 7 | 36 | 86 | 98 | 100 | Cytopathicity (CPE) on macrophages 6 days after infection % CPE ([6]; 10 µg/ml): 10%; inhibition at 50 µg/mL ([6]; 50 µg/ml, M/M): 100%; EC50 [6, 15]: 0.2 ± 0.06 µg/mL (≈ 0.696 µM); inhibition of HSV-2 replication ([6]; M/M): virtually completely inhibited

From publication PMC3723632, “A Multi-targeted Drug Candidate with Dual Anti-HIV and Anti-HSV Activity” (PLoS Pathogens, 2013)
